Legend:
[1] = molecular target: T1, GppNHp-loaded KRAS4b (amino acids 1-169) G12C/C118S protein (Homo sapiens, UniProt P01116, C118S/G12C); assay: Covalent cysteine 12 modification by MALDI-TOF MS, GppNHp-loaded KRAS G12C; assay type: binding; details: 15 minutes reaction time point
T1 construct: KRAS4b (amino acids 1-169) G12C/C118S protein; made in house
In short: (§1)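 Percent modification comes from MALDI-TOF peak heights: the compound-adduct peak divided by the sum of the remaining-protein and adduct peaks. Reactions contained 1 μM protein and compound at a 1:2.5 ratio, in pH 7.3 HEPES buffer with NaCl and MgCl2, held 15 min at room temperature.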

[2] = molecular target: T2, GTP-loaded KRAS4b (amino acids 1-169) G12C/C118S protein (Homo sapiens, UniProt P01116, C118S/G12C); assay: Covalent cysteine 12 modification by MALDI-TOF MS, GTP-loaded KRAS G12C; assay type: binding; details: 15 minutes reaction time point
T2 construct: KRAS4b (amino acids 1-169) G12C/C118S protein; made in house
In short: as §1

[3] = molecular target: T3, GDP-loaded KRAS4b (amino acids 1-169) G12C/C118S protein (Homo sapiens, UniProt P01116, C118S/G12C); assay: Covalent cysteine 12 modification by MALDI-TOF MS, GDP-loaded KRAS G12C; assay type: binding; details: 15 minutes reaction time point
T3 construct: KRAS4b (amino acids 1-169) G12C/C118S protein; made in house
In short: as §1

pERK in NCI-H358 cells = assay: Cell-based pERK HTRF assay (pERK inhibition in H358 cells); details: 30 min incubation
In short: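 NCI-H358 cells were seeded at 4×10^4 cells/well in RPMI/10% FBS, then treated next day for 30 min at 0.25% DMSO (9-point, 3-fold series from 75 μM). Lysates were read by HTRF (d2/Eu cryptate antibody pair, 615 nm emission) after 4–24 h at room temperature to give pERK IC50.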

| Structure (SMILES) | GppNHp-KRAS G12C percent of modification [1] | GTP-KRAS G12C percent of modification [2] | GDP-KRAS G12C percent of modification [3] | IC50 (pERK in NCI-H358 cells; Homo sapiens, NCI-H358, 0.5 h) | IC50 (pERK in NCI-H358 cells) |
| --- | --- | --- | --- | --- | --- |
| C=CC(=O)N1CC[C@@H](N(C)c2nc(OC[C@H]3C[C@@H](OC)CN3C)nc3c(F)c(-c4ccc(F)c5sc(N)c(C#N)c45)c(C(F)(F)F)cc23)[C@H]1C (single isomer, unassigned) [Compound 173] | A (percent of modification ≥70%) | A (percent of modification ≥70%) | A (percent of modification ≥70%) | < 100 nM |  |
| C=CC(=O)N1CC[C@@H](N(C)c2nc(OC[C@@H]3C[C@@H](OC)CN3C)nc3c(F)c(-c4ccc(F)c5sc(N)c(C#N)c45)c(C(F)(F)F)cc23)[C@H]1C (single isomer, unassigned) [Compound 174] | D (percent of modification <10%) | D (percent of modification <10%) | D (percent of modification <10%) |  | 100 to 1000 nM |
| C=CC(=O)N1CC[C@@H](N(C)c2nc(OC[C@H]3C[C@@H](OC)CN3C)nc3c(F)c(-c4ccc(F)c5sc(N)c(C#N)c45)c(C(F)(F)F)cc23)[C@H]1C (single isomer, unassigned) [Compound 175] | D (percent of modification <10%) | D (percent of modification <10%) | D (percent of modification <10%) |  | 100 to 1000 nM |
| C=CC(=O)N1CCC(N(C)c2nc(OC[C@@H]3CCCN3C)nc3c(F)c(-c4nc(N)cc(C)c4C(F)(F)F)c(Cl)cc23)[C@H]1C (some centres unmarked) [Compound 9] | C (10%≤percent of modification <50%) | C (10%≤percent of modification <50%) | B (50≤percent of modification <70%) | 100 to 1000 nM |  |
| C=CC(=O)N1CCC(N(C)c2nc(OC[C@@]34CCCN3C[C@H](F)C4)nc3c(F)c(-c4nc(N)cc(C)c4C(F)(F)F)c(Cl)cc23)[C@H]1C (some centres unmarked) [Compound 10] | B (50≤percent of modification <70%) | B (50≤percent of modification <70%) | A (percent of modification ≥70%) | < 100 nM |  |
| C=CC(=O)N1CCC(N(CC)c2nc(OC[C@@]34CCCN3C[C@H](F)C4)nc3cc(-c4ccc(F)c5sc(N)c(C#N)c45)c(C#N)cc23)[C@H]1CC (some centres unmarked) [Compound 14] | A (percent of modification ≥70%) | B (50≤percent of modification <70%) | A (percent of modification ≥70%) | 100 to 1000 nM |  |
| C=CC(=O)N1CC[C@@H](N(CC)c2nc(OC[C@@]34CCCN3C[C@H](F)C4)nc3c(F)c(-c4ccc(F)c5sc(N)c(C#N)c45)ccc23)[C@H]1C [Compound 17, 4-(4-(((2R,3R)-1-acryloyl-2-methylpyrrolidin-3-yl)(ethyl)amino)-8-fluoro-2-(((2R,7aS)-2-fluorotetrahydro-1H-pyrrolizin-7a(5H)-yl)methoxy)quinazolin-7-yl)-2-amino-7-fluorobenzo[b]thiophene-3-carbonitrile] | A (percent of modification ≥70%) | A (percent of modification ≥70%) | A (percent of modification ≥70%) | < 100 nM |  |

Results, then the molecule that gave them:

| GppNHp-KRAS G12C percent of modification [1] | GTP-KRAS G12C percent of modification [2] | GDP-KRAS G12C percent of modification [3] | IC50 (pERK in NCI-H358 cells; Homo sapiens, NCI-H358, 0.5 h) | IC50 (pERK in NCI-H358 cells) | Structure (SMILES) |
| --- | --- | --- | --- | --- | --- |
| A (percent of modification ≥70%) | A (percent of modification ≥70%) | A (percent of modification ≥70%) | < 100 nM |  | C=CC(=O)N1CC[C@@H](N(C)c2nc(OC[C@@]34CCCN3C[C@H](F)C4)nc3c(F)c(-c4ccc(F)c5sc(N)c(C#N)c45)ccc23)[C@H]1CC [Compound 4] |
| A (percent of modification ≥70%) | A (percent of modification ≥70%) | A (percent of modification ≥70%) | < 100 nM |  | C=CC(=O)N1CCC(N(C)c2nc(OC[C@@]34CCCN3C[C@H](F)C4)nc3cc(-c4ccc(F)c5sc(N)c(C#N)c45)c(C#N)cc23)[C@H]1CC (some centres unmarked) [Compound 7] |
| C (10%≤percent of modification <50%) | C (10%≤percent of modification <50%) | C (10%≤percent of modification <50%) | < 100 nM |  | C=CC(=O)N1CCC(N(CC)c2nc(OC[C@@]34CCCN3C[C@H](F)C4)nc3c(F)c(-c4ccc(F)c5sc(N)c(C#N)c45)c(C(F)(F)F)cc23)[C@H]1CC (some centres unmarked) [Compound 8] |
| A (percent of modification ≥70%) | A (percent of modification ≥70%) | A (percent of modification ≥70%) | 100 to 1000 nM |  | C=CC(=O)N1CCC(N(CC)c2nc(OC[C@@]34CCCN3C[C@H](F)C4)nc3c(F)c(-c4ccc(F)c5sc(N)c(C#N)c45)ccc23)[C@H]1CC (some centres unmarked) [Compound 11] |
| C (10%≤percent of modification <50%) | C (10%≤percent of modification <50%) | C (10%≤percent of modification <50%) | < 100 nM |  | C=CC(=O)N1CCC(N(CC)c2nc(OC[C@@]34CCCN3C[C@H](F)C4)nc3c(F)c(-c4ccc(F)c5sc(N)c(C#N)c45)c(Cl)cc23)[C@H]1CC (some centres unmarked) [Compound 12] |
| B (50≤percent of modification <70%) | C (10%≤percent of modification <50%) | B (50≤percent of modification <70%) | < 100 nM |  | C=CC(=O)N1CC[C@@H](N(C)c2nc(OC[C@@]34CCCN3C[C@H](F)C4)nc3c(F)c(-c4ccc(F)c5sc(N)c(C#N)c45)c(C(F)(F)F)cc23)[C@H]1CC [Compound 18] |
| C (10%≤percent of modification <50%) | C (10%≤percent of modification <50%) | C (10%≤percent of modification <50%) | < 100 nM |  | C=CC(=O)N1CC[C@@H](N(C)c2nc(OC[C@@]34CCCN3C[C@H](F)C4)nc3c(F)c(-c4ccc(F)c5sc(N)c(C#N)c45)c(Cl)cc23)[C@H]1CC [Compound 19] |
| C (10%≤percent of modification <50%) | C (10%≤percent of modification <50%) | C (10%≤percent of modification <50%) | < 100 nM |  | C=CC(=O)N1CC[C@@H](N(CC)c2nc(OC[C@@]34CCCN3C[C@H](F)C4)nc3c(F)c(-c4ccc(F)c5sc(N)c(C#N)c45)c(Cl)cc23)[C@H]1CC [Compound 20] |
| D (percent of modification <10%) | D (percent of modification <10%) | A (percent of modification ≥70%) | < 100 nM |  | C=CC(=O)N1CC[C@@H](N(C)c2nc(OC[C@@]34CCCN3C[C@H](F)C4)nc3cc(-c4ccc(F)c5sc(N)c(C#N)c45)c(F)cc23)[C@@H]1CC [Compound 22] |
| C (10%≤percent of modification <50%) | C (10%≤percent of modification <50%) | A (percent of modification ≥70%) | < 100 nM |  | C=CC(=O)N1CC[C@@H](N(C)c2nc(OC[C@@]34CCCN3C[C@H](F)C4)nc3c(F)c(-c4ccc(F)c5sc(N)c(C#N)c45)ccc23)[C@@H]1CC [Compound 23] |
